Measured values as given in PubChem BioAssay (NCI).
“And” between values parts separate entries of the source, which are not always exact repeats. Equal entries are not always repeated.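 Values below derive from 48-hour exposures of cells grown in 96-well plates, with endpoints linearly interpolated between the two concentrations bracketing the appropriate inhibition level. GI50 = concentration required for 50% inhibition of growth. TGI denotes the concentration required for complete inhibition of growth.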

Key:
Assay in all cases: NCI tumour cell line growth inhibition, 48 h
BT-549 breast = test system: BT-549 breast
DU-145 prostate = test system: DU-145 prostate
HS 578T breast = test system: HS 578T breast
MDA-MB-231 breast = test system: MDA-MB-231 breast
PC-3 prostate = test system: PC-3 prostate
DLD-1 colon = test system: DLD-1 colon
DMS 273 small cell lung = test system: DMS 273 small cell lung
M19-MEL melanoma = test system: M19-MEL melanoma
SNB-78 CNS = test system: SNB-78 CNS

| Compound | GI50 (BT-549 breast) | TGI (BT-549 breast) | GI50 (DU-145 prostate) | TGI (DU-145 prostate) [µM] | GI50 (HS 578T breast) | TGI (HS 578T breast) | GI50 (MDA-MB-231 breast) | TGI (MDA-MB-231 breast) | GI50 (PC-3 prostate) | TGI (PC-3 prostate) | TGI (DLD-1 colon) [µM] | TGI (DMS 273 small cell lung) [µM] | TGI (M19-MEL melanoma) [µM] | TGI (SNB-78 CNS) [µM] |
| --- | --- | --- | --- | --- | --- | --- | --- | --- | --- | --- | --- | --- | --- | --- |
| CC(C)c1ccc2c(c1)CC[C@@H]1[C@@](C)(C(=O)O)CCC[C@]21C | 1.47 µM | 4.59 µM | 4.39 µM | 19.6 | 3.08 µM | 9 µM | 1.31 µM | 6.04 µM | 7.62 µM | 82.6 µM |  |  |  |  |
| CS(=O)(=O)Nc1ccc2c(c1)oc(=O)c1ccccc12 |  | > 100 µM |  | > 100 |  | > 100 µM |  | > 100 µM |  | > 100 µM |  |  |  |  |
| C=C1C(=O)OC2CCN3CC=C(COC(=O)C(C)(O)C4(CO4)C1C)C23 (stereo unspecified) |  | > 100 µM |  | > 100 |  | > 100 µM |  | > 100 µM |  | > 100 µM |  |  |  |  |
| C=C(CNCc1ccccc1)c1ccc(C(=O)Nc2ccccc2N)cc1 | 15.4 µM | > 100 µM | 5.05 µM | > 100 | 15.2 µM | > 100 µM | 13.2 µM | 54.5 µM | 18.5 µM | > 100 µM |  |  |  |  |
| CC(C)(C)CC(C)(C)c1cc2c(O)c(c1)Cc1cc(C(C)(C)CC(C)(C)C)cc(c1O)Cc1cc(C(C)(C)CC(C)(C)C)cc(c1O)Cc1cc(C(C)(C)CC(C)(C)C)cc(c1O)C2 |  |  |  |  |  |  |  |  |  |  | > 100 | > 100 | > 100 | > 100 |
| O=C1/C(=C/c2ccc(Br)cc2)COc2ccc(O)c(O)c21 | 1.2 µM | 3 µM | 1.31 µM | 2.9 | 1.54 µM | 6.77 µM | 0.682 µM | 2.27 µM | 0.599 µM | 2.42 µM |  |  |  |  |
| O=C(Nc1ccc(Cl)cc1F)c1ccccc1O | 2.88 µM | 9.88 µM | 4.13 µM | > 100 | 2.68 µM | 23.2 µM | 1.44 µM | 3.79 µM | 2.77 µM | 10.9 µM |  |  |  |  |
| CCN(CC)CCOc1ccc(-c2nc3cc(Cl)ccc3s2)cc1 | 1.83 µM | 5.73 µM |  |  | 1.62 µM | 3.72 µM | 1.47 µM | 2.92 µM | 1.74 µM | 4.61 µM |  |  |  |  |
| COC(=O)C(=Cc1cc(OC)ccc1OC)C(=O)OC |  |  |  |  |  |  |  |  |  |  | 91.3 | > 100 | 79.5 | > 100 |
| Cc1ccc(C)c(C2=C(c3cn(C)c4ccccc34)C(=O)NC2=O)c1 | > 25 µM | > 25 µM | > 20.2 µM | > 25 | > 25 µM | > 25 µM | > 25 µM | > 25 µM | 13.8 µM | > 25 µM |  |  |  |  |
| COc1cnc2c(c1)C(=O)c1c-2n(CCCNC(C)C)c(=O)c2cc(Cl)ccc12 | 0.698 µM | 2.59 µM | 0.173 µM | 2.06 | 1.52 µM | 4.08 µM | 1.39 µM | 3.18 µM | 0.948 µM | 2.57 µM |  |  |  |  |
| CCN(CC)CCC(CNc1ccnc2cc(Cl)ccc12)c1ccc(OC)cc1 (stereo unspecified) | 8.14 µM and 8.47 µM | 23.4 µM and 22.6 µM | 21.9 µM and 26.7 µM | > 100 | 5.51 µM and 7.53 µM | 23.4 µM and 34.3 µM | 2.34 µM and 2.42 µM | 11.2 µM and 10.9 µM | 19.5 µM and 9.85 µM | 76.3 µM and > 100 µM |  |  |  |  |
| O=C(Nc1nc2ccc(C(F)(F)F)cc2s1)c1cc(Cl)ccc1O | 0.89 µM | 7.77 µM | 1.59 µM | > 100 | 1.23 µM | > 100 µM | 0.704 µM | 3.75 µM | 0.318 µM | 11.9 µM |  |  |  |  |
| N#Cc1c(NN)n(C2OC(CO)C(O)C2O)c2ncnc(N)c12 (stereo unspecified) | 0.271 µM | 2.8 µM | 0.0375 µM | 6.26 | 0.0382 µM | 0.429 µM | 0.284 µM | > 24.1 µM | 0.0778 µM |  |  |  |  |  |
| O=C(CNc1ccc(Cl)cc1)Nc1ccc(-c2nc3ccccc3s2)cc1 | 1.83 µM | 4.7 µM | 3.49 µM | 11.7 | 7.87 µM | 47.6 µM | 3.67 µM | 14.7 µM | 1.85 µM | 4.41 µM |  |  |  |  |
| COc1ccc(C(=O)C(c2ccc(OC)cc2)C2(O)C(=O)Nc3ccc([N+](=O)[O-])cc32)cc1 (stereo unspecified) |  |  |  |  |  |  |  |  |  |  | > 100 | > 100 | > 100 | > 100 |
| NC(=O)NC1C(c2ccccc2)=C1c1ccccc1 |  | 26.7 µM |  | > 100 |  | > 100 µM |  | 38.2 µM |  | 39.4 µM |  |  |  |  |
| COc1ccc(-n2cc(-c3cc(OC)c(OC)c(OC)c3)c(C(=O)C(F)(F)F)c2C)cc1 | 56.2 µM | > 100 µM | > 100 µM | > 100 | 53.1 µM | > 100 µM | > 100 µM | > 100 µM | 9.01 µM | > 100 µM |  |  |  |  |
| COc1ccc2c3c([nH]c2c1[N+](=O)[O-])C(C)=NCC3 |  |  |  |  |  |  |  |  |  |  | > 100 | > 100 |  | > 100 |
| COc1cc(C2CC(c3cccc(Br)c3)=NN2C(C)=O)cc(OC)c1OC (stereo unspecified) | 10.2 µM | 40.7 µM | 0.371 µM | 6.61 | 0.397 µM | > 100 µM | 1.67 µM | > 46 µM | 0.162 µM | 36.2 µM |  |  |  |  |
| N#Cc1nc(Nc2cccc3ccccc23)sc1N |  |  |  |  |  |  |  |  |  |  | > 100 | > 100 | > 100 | 75.6 |
| CCOC(=O)CCCn1c(SC)nc2[nH]cc(-c3ccccc3)c2c1=O |  |  | 17.1 µM | > 100 | 23.8 µM | 77.4 µM | 25.8 µM | 66.7 µM | 13.8 µM | 35.8 µM |  |  |  |  |
| CCN1CCN(C(c2ccc(C(F)(F)F)cc2)c2ccc3cccnc3c2O)CC1 (stereo unspecified) | 1.4 µM | 11.6 µM | 5.56 µM | 18.7 |  |  | 2.97 µM | 25.3 µM | 0.361 µM | 17.6 µM |  |  |  |  |
| O=C(/C=C/c1ccccc1O)c1ccccc1O |  |  |  |  |  |  |  |  |  |  | > 100 | > 100 | > 100 | > 100 |
| O=C(O)C1C2C=CC(O2)C1C(=O)NCc1ccccn1 (stereo unspecified) |  | > 100 µM |  | > 100 |  | > 100 µM |  | > 100 µM |  | > 100 µM |  |  |  |  |
| Clc1nc2ccccc2nc1CI | 6.13 µM | 18.2 µM | 17.1 µM | 30.8 | 12.7 µM | 77.6 µM | 3.14 µM | 9.08 µM | 8.81 µM | 22.5 µM |  |  |  |  |
